Results reported in PubChem BioAssay (NCI).
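Five concentrations, 48 hours, 96-well plates. The concentration for 50% growth inhibition is given as GI50. TGI: concentration producing complete growth inhibition.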

Assays:
Assay in all cases: DTP human tumour cell line panel, 48 h
SK-MEL-5 melanoma = test system: SK-MEL-5 melanoma
HCT-15 colon = test system: HCT-15 colon
SK-MEL-28 melanoma = test system: SK-MEL-28 melanoma
SK-OV-3 ovarian = test system: SK-OV-3 ovarian
LOX IMVI melanoma = test system: LOX IMVI melanoma
T-47D breast = test system: T-47D breast
NCI-H23 lung = test system: NCI-H23 lung
SF-539 CNS = test system: SF-539 CNS
OVCAR-3 ovarian = test system: OVCAR-3 ovarian
SF-295 CNS = test system: SF-295 CNS
UACC-62 melanoma = test system: UACC-62 melanoma
UO-31 renal = test system: UO-31 renal
MOLT-4 leukemia = test system: MOLT-4 leukemia
K-562 leukemia = test system: K-562 leukemia
NCI/ADR-RES ovarian = test system: NCI/ADR-RES ovarian
UACC-257 melanoma = test system: UACC-257 melanoma
NCI-H522 lung = test system: NCI-H522 lung
OVCAR-8 ovarian = test system: OVCAR-8 ovarian
HS 578T breast = test system: HS 578T breast
MDA-MB-435 = test system: MDA-MB-435
HT29 colon = test system: HT29 colon
OVCAR-4 ovarian = test system: OVCAR-4 ovarian
SNB-19 CNS = test system: SNB-19 CNS
COLO 205 colon = test system: COLO 205 colon
ACHN renal = test system: ACHN renal
HCC-2998 colon = test system: HCC-2998 colon
IGROV1 ovarian = test system: IGROV1 ovarian

`CCCCCCCCCCCCCCCCOCCCOP(=O)(O)C1CCCN(O)C1=O` (stereo not drawn) was tested. Which TGI (SK-MEL-5 melanoma) did it give?
Its TGI is 14.7 µM.

And the GI50 (HCT-15 colon)?
The GI50 was 0.472 µM.

What about the TGI (HCT-15 colon) of the same compound?
The TGI was 12.1 µM.

And the GI50 (SK-MEL-28 melanoma)?
Its GI50 is 3.46 µM.

And the TGI (SK-MEL-28 melanoma)?
Its TGI is 44.3 µM.

And the GI50 (SK-OV-3 ovarian)?
Its GI50 is 3.62 µM.

And the TGI (SK-OV-3 ovarian)?
The TGI was 16.7 µM.

What about the GI50 (LOX IMVI melanoma) of the same compound?
The GI50 was 2.86 µM.

What about the TGI (LOX IMVI melanoma) of the same compound?
The TGI was 11.4 µM.

And the GI50 (T-47D breast)?
The GI50 was 6.15 µM.

What about the TGI (T-47D breast) of the same compound?
The TGI was 27.5 µM.

What about the GI50 (NCI-H23 lung) of the same compound?
Its GI50 is 4.19 µM.

What about the TGI (NCI-H23 lung) of the same compound?
Its TGI is 20.5 µM.

And the GI50 (SF-539 CNS)?
Its GI50 is 3.02 µM.

What about the TGI (SF-539 CNS) of the same compound?
The TGI was 11 µM.

What about the GI50 (OVCAR-3 ovarian) of the same compound?
The GI50 was 2.77 µM.

And the TGI (OVCAR-3 ovarian)?
The TGI was 16.4 µM.

What about the GI50 (SF-295 CNS) of the same compound?
The GI50 was 2.44 µM.

And the TGI (SF-295 CNS)?
Its TGI is 11.3 µM.

And the GI50 (UACC-62 melanoma)?
Its GI50 is 1.29 µM.

What about the TGI (UACC-62 melanoma) of the same compound?
Its TGI is 7.18 µM.

And the GI50 (UO-31 renal)?
The GI50 was 2.77 µM.

What about the TGI (UO-31 renal) of the same compound?
The TGI was 13.7 µM.

And the GI50 (MOLT-4 leukemia)?
Its GI50 is 1.6 µM.

What about the TGI (MOLT-4 leukemia) of the same compound?
Its TGI is 19.7 µM.

And the GI50 (K-562 leukemia)?
Its GI50 is 4.25 µM.

And the TGI (K-562 leukemia)?
Its TGI is 42.3 µM.

What about the GI50 (NCI/ADR-RES ovarian) of the same compound?
Its GI50 is 4.02 µM.

What about the TGI (NCI/ADR-RES ovarian) of the same compound?
The TGI was 25.6 µM.

And the GI50 (UACC-257 melanoma)?
Its GI50 is 3.23 µM.

What about the TGI (UACC-257 melanoma) of the same compound?
The TGI was 14.8 µM.

What about the GI50 (NCI-H522 lung) of the same compound?
Its GI50 is 2.76 µM.

And the TGI (NCI-H522 lung)?
Its TGI is 14.8 µM.

And the GI50 (OVCAR-8 ovarian)?
Its GI50 is 3.29 µM.

What about the TGI (OVCAR-8 ovarian) of the same compound?
The TGI was 27.8 µM.

What about the GI50 (HS 578T breast) of the same compound?
The GI50 was 14.1 µM.

And the TGI (HS 578T breast)?
Its TGI is 66.7 µM.

And the GI50 (MDA-MB-435)?
The GI50 was 3.13 µM.

And the TGI (MDA-MB-435)?
The TGI was over 100 µM.

And the GI50 (HT29 colon)?
Its GI50 is 0.953 µM.

What about the TGI (HT29 colon) of the same compound?
Its TGI is 83.5 µM.

What about the GI50 (OVCAR-4 ovarian) of the same compound?
The GI50 was 2.43 µM.

And the TGI (OVCAR-4 ovarian)?
The TGI was 19.2 µM.

And the GI50 (SNB-19 CNS)?
The GI50 was 0.63 µM.

And the TGI (SNB-19 CNS)?
The TGI was 14.5 µM.

And the GI50 (COLO 205 colon)?
The GI50 was 0.548 µM.

And the TGI (COLO 205 colon)?
Its TGI is 13.3 µM.

And the GI50 (ACHN renal)?
Its GI50 is 3.2 µM.

What about the TGI (ACHN renal) of the same compound?
Its TGI is 14.2 µM.

What about the GI50 (HCC-2998 colon) of the same compound?
The GI50 was 1.11 µM.

What about the TGI (HCC-2998 colon) of the same compound?
The TGI was 14.6 µM.

And the GI50 (IGROV1 ovarian)?
The GI50 was 0.609 µM.

And the TGI (IGROV1 ovarian)?
The TGI was 4.77 µM.
